Assay results from patent US6043248A, “Alpha-substituted pyrimidine-thioalkyl and alkylether compounds as inhibitors of viral reverse transcriptase” (priority 1997, dated 2000).
pIC50: −log10 of the molar value.

What follows are compounds tested against T1, P236L viral reverse transcriptase (Human immunodeficiency virus type 1 group M subtype B, UniProt P04585, P823L) (assay: inhibition of viral reverse transcriptase (P236L), cell free assay). Conditions: 30 minutes at 37° C., read-out: IC50 (Table I, P236L).
T1 construct: P236L viral reverse transcriptase is obtained by PNAS 90: 4713-4717 (1993); made in house
Type: biochemical
Description: The utility of the pyrimidine-thioalkyl and alkylether anti-AIDS compounds of Formula IA of this invention can be determined by their ability to inhibit viral reverse transcriptase, an enzyme essential for human immunodeficiency virus replication. This enzyme has characteristics which differentiate it from other known cellular polymerases and it is a unique enzyme which is not found in uninfected cells. Viral reverse transcriptase (Wild Type) is found in extracts from bacterial clones prepared according to the procedure described in AIDS Virus Reverse Transcriptase defined by high level expression in Escherichia coli, EMBO J. 6:3133-3137 (1987). P236L viral reverse transcriptase is obtained by PNAS 90: 4713-4717 (1993). Inhibition of this enzyme is determined in a cell free assay which measures the level of radioactive precursors incorporated into DNA. Extracts prepared according to the procedure of Science, 1125-1129 (1981) are incubated in a mixture of inhibitor, 20 mM dithiothreitol, 60 mM sodium chloride, 0.05% NP-40, 10 mM magnesium chloride, 50 mM Tris pH 8.3, 10 μM [^35 S]-labeled deoxynuleoside-5'-triphosphate, 10 μg/ml RNA template (poly rC or poly rG) and 5 μg/ml DNA primer (oligo dG or oligo dT) for 30 minutes at 37° C. Incorporation of radio-labeled percursor is determined by spotting aliquots of the reaction mixture on DE81 paper, washing the papers to remove unincorporated percursor, drying and determining counts. The results (IC50 means the concentration, in μM of drug, required to inhibit the reverse transcriptase activity (P236L and Wild Type) to the extent of 50%) of various assay(s) are combined and reported as % inhibition and/or IC50 (calculated) in Table I (P236L) and Table II (Wild Type).

Row | Compound | pIC50
1 | 4-Amino-6-chloro-2-[[(5-chloroimidazo[1,2-a]pyridin-2-yl)methyl]thio]-pyrimidine [Example 172] | 4.30
2 | Nc1cc(Cl)nc(SCc2c(F)cccc2F)n1 [Example 34, 4-amino-6-chloro-2-(2,6-difluorophenylmethylthio)-pyrimidine] | 5.00
3 | Nc1cc(Cl)nc(SCc2ccccc2)n1 [Example 34A, 4-amino-6-chloro-2-(benzylthio)-pyrimidine] | 5.70
4 | Cc1ccccc1CSc1nc(N)cc(Cl)n1 [Example 35, 4-amino-6-chloro-2-(2-methylphenylmethylthio)-pyrimidine] | 6.52
5 | Cc1cccc(CSc2nc(N)cc(Cl)n2)c1 [Example 36, 4-amino-6-chloro-2-(3-methylphenylmethylthio)-pyrimidine] | 7.30
6 | Cc1ccc(CSc2nc(N)cc(Cl)n2)cc1 [Example 37, 4-amino-6-chloro-2-(4-methylphenylmethylthio)-pyrimidine] | 6.48
7 | Nc1cc(Cl)nc(SCc2cccc(C(F)(F)F)c2)n1 [Example 38, 4-amino-6-chloro-2-(3-trifluoromethylphenylmethylthio)-pyrimidine] | 6.00
8 | COc1cccc(CSc2nc(N)cc(Cl)n2)c1 [Example 39, 4-amino-6-chloro-2-(3-methoxyphenylmethylthio)-pyrimidine] | 6.80
9 | Nc1cc(Cl)nc(SCc2cccc(F)c2)n1 [Example 41, 4-amino-6-chloro-2-(3-fluorophenylmethylthio)-pyrimidine] | 6.70
10 | Nc1cc(Cl)nc(SCc2cccc(Cl)c2)n1 [Example 42, 4-amino-6-chloro-2-(3-chlorophenylmethylthio)-pyrimidine] | 6.30
11 | Nc1cc(Cl)nc(SCc2cccc(Br)c2)n1 [Example 43, 4-amino-6-chloro-2-(3-bromophenylmethylthio)-pyrimidine] | 6.85
12 | Nc1cc(Cl)nc(SCc2cccc(I)c2)n1 [Example 44, 4-amino-6-chloro-2-(3-iodophenylmethylthio)-pyrimidine] | 6.22
13 | Nc1cc(Cl)nc(SCc2cccc([N+](=O)[O-])c2)n1 [Example 45, 4-amino-6-chloro-2-(3-nitrophenylmethylthio)-pyrimidine] | 6.96
14 | COC(=O)c1cccc(CSc2nc(N)cc(Cl)n2)c1 [Example 46, 4-amino-6-chloro-2-(3-carbomethoxyphenylmethylthio)-pyrimidine] | 7.00
15 | CC(C)(C)c1ccc(CSc2nc(N)cc(Cl)n2)cc1 [Example 47, 4-amino-6-chloro-2-(4-t-butylphenylmethylthio)-pyrimidine] | 6.00
16 | Nc1cc(Cl)nc(SCc2ccc(F)c(F)c2)n1 [Example 48, 4-amino-6-chloro-2-(3,4-difluorophenylmethylthio)-pyrimidine] | 6.30
17 | Nc1cc(Cl)nc(SCc2ccc(Cl)c(Cl)c2)n1 [Example 49, 4-amino-6-chloro-2-(3,4-dichlorophenylmethylthio)-pyrimidine] | 7.22
18 | Nc1cc(Cl)nc(SCc2cc(Cl)cc(Cl)c2)n1 [Example 50, 4-amino-6-chloro-2-(3,5-dichlorophenylmethylthio)-pyrimidine] | 6.48
19 | Nc1cc(Cl)nc(SCc2ccc(Cl)cc2Cl)n1 [Example 51, 4-amino-6-chloro-2-(2,4-dichlorophenylmethylthio)-pyrimidine] | 6.00
20 | Nc1cc(Cl)nc(SCc2cc(Br)cc(Br)c2)n1 [Example 52, 4-amino-6-chloro-2-(3,5-dibromophenylmethylthio)-pyrimidine] | 6.70
21 | Nc1nc(SCc2ccccc2)nc(Cl)c1C1CCCCC1 [Example 53, 4-amino-6-chloro-5-cyclohexyl-2-(benzylthio)-pyrimidine] | 4.82
22 | Nc1cc(Cl)nc(SCc2ccccn2)n1 [Example 55, 4-amino-6-chloro-2-(2-pyridylmethylthio)-pyrimidine] | 8.70
23 | Nc1cc(Cl)nc(SCc2cccnc2)n1 [Example 57, 4-amino-6-chloro-2-(3-pyridylmethylthio)-pyrimidine] | 5.00
